#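 Following 48 hours of exposure in 96-well plates, responses at five concentrations were used to interpolate endpoints linearly. Abbreviation: GI50, concentration required for 50% inhibition of growth. TGI: total growth inhibition.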
# Tests used:
# Test in all cases: NCI-60 cell line screen, 48 h
# SK-MEL-5 melanoma = system: SK-MEL-5 melanoma
# NCI-H460 lung = system: NCI-H460 lung
# RPMI-8226 leukemia = system: RPMI-8226 leukemia
# TK-10 renal = system: TK-10 renal
# SK-OV-3 ovarian = system: SK-OV-3 ovarian
# COLO 205 colon = system: COLO 205 colon
# HCC-2998 colon = system: HCC-2998 colon
# MDA-MB-231 breast = system: MDA-MB-231 breast
# LOX IMVI melanoma = system: LOX IMVI melanoma
# OVCAR-3 ovarian = system: OVCAR-3 ovarian
# NCI-H522 lung = system: NCI-H522 lung
# UO-31 renal = system: UO-31 renal
# HCT-15 colon = system: HCT-15 colon
# U251 CNS = system: U251 CNS
# SNB-75 CNS = system: SNB-75 CNS
# UACC-62 melanoma = system: UACC-62 melanoma
# PC-3 prostate = system: PC-3 prostate
# SW-620 colon = system: SW-620 colon
# MCF7 breast = system: MCF7 breast
# SF-295 CNS = system: SF-295 CNS
# SK-MEL-28 melanoma = system: SK-MEL-28 melanoma
# 786-0 renal = system: 786-0 renal
# MDA-MB-435 = system: MDA-MB-435
# HL-60(TB) leukemia = system: HL-60(TB) leukemia
# T-47D breast = system: T-47D breast
# RXF 393 renal = system: RXF 393 renal
# SK-MEL-2 melanoma = system: SK-MEL-2 melanoma
# EKVX NSCLC = system: EKVX NSCLC
# A498 renal = system: A498 renal
# K-562 leukemia = system: K-562 leukemia
# UACC-257 melanoma = system: UACC-257 melanoma
# MALME-3M melanoma = system: MALME-3M melanoma
# HCT-116 colon = system: HCT-116 colon
# SF-268 CNS = system: SF-268 CNS
# HS 578T breast = system: HS 578T breast
# MOLT-4 leukemia = system: MOLT-4 leukemia
# OVCAR-5 ovarian = system: OVCAR-5 ovarian
# NCI-H226 lung = system: NCI-H226 lung
# HOP-92 NSCLC = system: HOP-92 NSCLC
# HOP-62 NSCLC = system: HOP-62 NSCLC
# A549 NSCLC = system: A549 NSCLC
# SN12C renal = system: SN12C renal
# KM12 colon = system: KM12 colon
# IGROV1 ovarian = system: IGROV1 ovarian
# NCI-H23 lung = system: NCI-H23 lung
# OVCAR-4 ovarian = system: OVCAR-4 ovarian
# SR leukemia = system: SR leukemia
# SNB-19 CNS = system: SNB-19 CNS
# ACHN renal = system: ACHN renal
# BT-549 breast = system: BT-549 breast
# HT29 colon = system: HT29 colon
# NCI/ADR-RES ovarian = system: NCI/ADR-RES ovarian
# CCRF-CEM leukemia = system: CCRF-CEM leukemia
# SF-539 CNS = system: SF-539 CNS
# DU-145 prostate = system: DU-145 prostate
# CAKI-1 renal = system: CAKI-1 renal
smiles,measurement,setting,value
CCOC(=O)c1cc(NS(=O)(=O)c2ccccc2)cc(C(=O)OCC)c1,GI50,SK-MEL-5 melanoma,> 100 µM
same,TGI,SK-MEL-5 melanoma,> 100 µM
same,GI50,NCI-H460 lung,> 100 µM
same,TGI,NCI-H460 lung,> 100 µM
same,GI50,RPMI-8226 leukemia,> 100 µM
same,TGI,RPMI-8226 leukemia,> 100 µM
same,GI50,TK-10 renal,> 100 µM
same,TGI,TK-10 renal,> 100 µM
same,GI50,SK-OV-3 ovarian,> 100 µM
same,TGI,SK-OV-3 ovarian,> 100 µM
same,GI50,COLO 205 colon,> 100 µM
same,TGI,COLO 205 colon,> 100 µM
same,GI50,HCC-2998 colon,> 100 µM
same,TGI,HCC-2998 colon,> 100 µM
same,GI50,MDA-MB-231 breast,> 100 µM
same,TGI,MDA-MB-231 breast,> 100 µM
same,GI50,LOX IMVI melanoma,> 100 µM
same,TGI,LOX IMVI melanoma,> 100 µM
same,GI50,OVCAR-3 ovarian,> 100 µM
same,TGI,OVCAR-3 ovarian,> 100 µM
same,GI50,NCI-H522 lung,> 100 µM
same,TGI,NCI-H522 lung,> 100 µM
same,GI50,UO-31 renal,> 100 µM
same,TGI,UO-31 renal,> 100 µM
same,GI50,HCT-15 colon,> 100 µM
same,TGI,HCT-15 colon,> 100 µM
same,GI50,U251 CNS,> 100 µM
same,TGI,U251 CNS,> 100 µM
same,GI50,SNB-75 CNS,> 100 µM
same,TGI,SNB-75 CNS,> 100 µM
same,GI50,UACC-62 melanoma,> 100 µM
same,TGI,UACC-62 melanoma,> 100 µM
same,GI50,PC-3 prostate,> 100 µM
same,TGI,PC-3 prostate,> 100 µM
same,GI50,SW-620 colon,> 100 µM
same,TGI,SW-620 colon,> 100 µM
same,GI50,MCF7 breast,> 100 µM
same,TGI,MCF7 breast,> 100 µM
same,GI50,SF-295 CNS,> 100 µM
same,TGI,SF-295 CNS,> 100 µM
same,GI50,SK-MEL-28 melanoma,> 100 µM
same,TGI,SK-MEL-28 melanoma,> 100 µM
same,GI50,786-0 renal,> 100 µM
same,TGI,786-0 renal,> 100 µM
same,GI50,MDA-MB-435,> 100 µM
same,TGI,MDA-MB-435,> 100 µM
same,GI50,HL-60(TB) leukemia,> 100 µM
same,TGI,HL-60(TB) leukemia,> 100 µM
same,GI50,T-47D breast,> 100 µM
same,TGI,T-47D breast,> 100 µM
same,GI50,RXF 393 renal,> 100 µM
same,TGI,RXF 393 renal,> 100 µM
same,GI50,SK-MEL-2 melanoma,> 100 µM
same,TGI,SK-MEL-2 melanoma,> 100 µM
same,GI50,EKVX NSCLC,> 100 µM
same,TGI,EKVX NSCLC,> 100 µM
same,GI50,A498 renal,> 100 µM
same,TGI,A498 renal,> 100 µM
same,GI50,K-562 leukemia,> 100 µM
same,TGI,K-562 leukemia,> 100 µM
same,GI50,UACC-257 melanoma,> 100 µM
same,TGI,UACC-257 melanoma,> 100 µM
same,GI50,MALME-3M melanoma,> 100 µM
same,TGI,MALME-3M melanoma,> 100 µM
same,GI50,HCT-116 colon,> 100 µM
same,TGI,HCT-116 colon,> 100 µM
same,GI50,SF-268 CNS,> 100 µM
same,TGI,SF-268 CNS,> 100 µM
same,GI50,HS 578T breast,> 100 µM
same,TGI,HS 578T breast,> 100 µM
same,GI50,MOLT-4 leukemia,> 100 µM
same,TGI,MOLT-4 leukemia,> 100 µM
same,GI50,OVCAR-5 ovarian,> 100 µM
same,TGI,OVCAR-5 ovarian,> 100 µM
same,GI50,NCI-H226 lung,> 100 µM
same,TGI,NCI-H226 lung,> 100 µM
same,GI50,HOP-92 NSCLC,> 100 µM
same,TGI,HOP-92 NSCLC,> 100 µM
same,GI50,HOP-62 NSCLC,> 100 µM
same,TGI,HOP-62 NSCLC,> 100 µM
same,GI50,A549 NSCLC,> 100 µM
same,TGI,A549 NSCLC,> 100 µM
same,GI50,SN12C renal,> 100 µM
same,TGI,SN12C renal,> 100 µM
same,GI50,KM12 colon,> 100 µM
same,TGI,KM12 colon,> 100 µM
same,GI50,IGROV1 ovarian,> 100 µM
same,TGI,IGROV1 ovarian,> 100 µM
same,GI50,NCI-H23 lung,> 100 µM
same,TGI,NCI-H23 lung,> 100 µM
same,GI50,OVCAR-4 ovarian,> 100 µM
same,TGI,OVCAR-4 ovarian,> 100 µM
same,GI50,SR leukemia,> 100 µM
same,TGI,SR leukemia,> 100 µM
same,GI50,SNB-19 CNS,> 100 µM
same,TGI,SNB-19 CNS,> 100 µM
same,GI50,ACHN renal,> 100 µM
same,TGI,ACHN renal,> 100 µM
same,GI50,BT-549 breast,> 100 µM
same,TGI,BT-549 breast,> 100 µM
same,GI50,HT29 colon,> 100 µM
same,TGI,HT29 colon,> 100 µM
same,GI50,NCI/ADR-RES ovarian,> 100 µM
same,TGI,NCI/ADR-RES ovarian,> 100 µM
same,GI50,CCRF-CEM leukemia,> 100 µM
same,TGI,CCRF-CEM leukemia,> 100 µM
same,GI50,SF-539 CNS,> 100 µM
same,TGI,SF-539 CNS,> 100 µM
same,GI50,DU-145 prostate,> 100 µM
same,TGI,DU-145 prostate,> 100 µM
same,GI50,CAKI-1 renal,> 100 µM
same,TGI,CAKI-1 renal,> 100 µM

# Reference: PubChem BioAssay (NCI)
